From PubChem BioAssay (NCI)
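The concentration for 50% growth inhibition is given as GI50. TGI: total growth inhibition.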

Legend:
Test in all cases: DTP human tumour cell line panel, 384-well format
[1] = tested on: SK-MEL-28 melanoma
[2] = tested on: RXF 393 renal
[3] = tested on: T-47D breast
[4] = tested on: SR leukemia
[5] = tested on: U251 glioblastoma
[6] = tested on: MALME-3M melanoma
[7] = tested on: NCI/ADR-RES ovarian
[8] = tested on: HOP-62 NSCLC
[9] = tested on: KM12 colon
[10] = tested on: MDA-MB-231 breast
[11] = tested on: UACC-62 melanoma
[12] = tested on: ACHN renal
[13] = tested on: M14 melanoma
[14] = tested on: TK-10 renal
[15] = tested on: UACC-257 melanoma
[16] = tested on: 786-0 renal
[17] = tested on: HS 578T breast
[18] = tested on: NCI-H23 lung
[19] = tested on: LOX IMVI melanoma
[20] = tested on: OVCAR-4 ovarian
[21] = tested on: HOP-92 NSCLC
[22] = tested on: HL-60(TB) leukemia
[23] = tested on: SN12C renal
[24] = tested on: OVCAR-3 ovarian
[25] = tested on: MDA-MB-435 melanoma
[26] = tested on: MOLT-4 leukemia
[27] = tested on: SK-MEL-5 melanoma
[28] = tested on: MCF7 breast
[29] = tested on: CAKI-1 renal
[30] = tested on: HCT-15 colon
[31] = tested on: NCI-H322M lung
[32] = tested on: MDA-MB-468 breast
[33] = tested on: OVCAR-8 ovarian
[34] = tested on: SF-268 CNS
[35] = tested on: NCI-H460 NSCLC
[36] = tested on: SNB-19 CNS
[37] = tested on: COLO 205 colon
[38] = tested on: DU-145 prostate
[39] = tested on: RPMI-8226 leukemia
[40] = tested on: SF-539 CNS
[41] = tested on: BT-549 breast
[42] = tested on: SF-295 CNS
[43] = tested on: EKVX NSCLC
[44] = tested on: CCRF-CEM leukemia
[45] = tested on: NCI-H522 lung
[46] = tested on: IGROV1 ovarian
[47] = tested on: PC-3 prostate
[48] = tested on: HCC-2998 colon
[49] = tested on: HCT-116 colon
[50] = tested on: SK-OV-3 ovarian
[51] = tested on: A498 renal
[52] = tested on: NCI-H226 lung
[53] = tested on: SW-620 colon
[54] = tested on: A549 NSCLC
[55] = tested on: UO-31 renal
[56] = tested on: OVCAR-5 ovarian
[57] = tested on: HT29 colon
[58] = tested on: SNB-75 CNS

Q: For `Cn1cnc2c(F)c(Nc3ccc(Br)cc3F)c(C(=O)NOCCO)cc21`, which GI50 [1] is on record?
A: Its GI50 is < 14.3 nM.

Q: And the TGI [1]?
A: The TGI was 162 nM.

Q: And the TGI [2]?
A: Its TGI is > 21 µM.

Q: What about the GI50 [3] of the same compound?
A: Its GI50 is > 100 µM.

Q: What about the TGI [3] of the same compound?
A: Its TGI is > 100 µM.

Q: And the GI50 [4]?
A: Its GI50 is 24.7 µM.

Q: What about the TGI [4] of the same compound?
A: The TGI was > 100 µM.

Q: And the GI50 [5]?
A: The GI50 was 12.4 µM.

Q: What about the TGI [5] of the same compound?
A: The TGI was > 100 µM.

Q: And the GI50 [6]?
A: Its GI50 is < 10 nM.

Q: What about the TGI [6] of the same compound?
A: The TGI was 15.9 nM.

Q: What about the GI50 [7] of the same compound?
A: Its GI50 is 93.9 µM.

Q: What about the TGI [7] of the same compound?
A: The TGI was > 100 µM.

Q: And the TGI [8]?
A: The TGI was > 100 µM.

Q: And the GI50 [9]?
A: Its GI50 is 419 nM.

Q: And the TGI [9]?
A: Its TGI is > 100 µM.

Q: What about the GI50 [10] of the same compound?
A: Its GI50 is 422 nM.

Q: What about the TGI [10] of the same compound?
A: The TGI was 8.26 µM.

Q: What about the GI50 [11] of the same compound?
A: Its GI50 is 20.3 nM.

Q: What about the TGI [11] of the same compound?
A: Its TGI is 1200 nM.

Q: And the GI50 [12]?
A: Its GI50 is > 33.9 µM.

Q: And the TGI [12]?
A: Its TGI is > 100 µM.

Q: What about the GI50 [13] of the same compound?
A: Its GI50 is < 12.1 nM.

Q: What about the TGI [13] of the same compound?
A: The TGI was 161 nM.

Q: And the GI50 [14]?
A: The GI50 was 38.3 µM.

Q: And the TGI [14]?
A: The TGI was > 100 µM.

Q: And the GI50 [15]?
A: The GI50 was 33.3 nM.

Q: And the TGI [15]?
A: Its TGI is 241 nM.

Q: And the GI50 [16]?
A: Its GI50 is > 32.1 µM.

Q: What about the TGI [16] of the same compound?
A: The TGI was > 100 µM.

Q: And the TGI [17]?
A: Its TGI is > 88.2 µM.

Q: And the GI50 [18]?
A: Its GI50 is 325 nM.

Q: What about the TGI [18] of the same compound?
A: Its TGI is 17.8 µM.

Q: What about the GI50 [19] of the same compound?
A: The GI50 was 1250 nM.

Q: What about the TGI [19] of the same compound?
A: The TGI was 18.7 µM.

Q: What about the GI50 [20] of the same compound?
A: The GI50 was 17.9 µM.

Q: What about the TGI [20] of the same compound?
A: The TGI was > 100 µM.

Q: What about the GI50 [21] of the same compound?
A: Its GI50 is 1380 nM.

Q: And the TGI [21]?
A: The TGI was 9.01 µM.

Q: And the GI50 [22]?
A: Its GI50 is 39.9 nM.

Q: And the TGI [22]?
A: Its TGI is > 100 µM.

Q: What about the GI50 [23] of the same compound?
A: Its GI50 is 12.5 µM.

Q: What about the TGI [23] of the same compound?
A: Its TGI is > 100 µM.

Q: And the GI50 [24]?
A: Its GI50 is > 100 µM.

Q: What about the TGI [24] of the same compound?
A: Its TGI is > 100 µM.

Q: And the GI50 [25]?
A: The GI50 was 100 nM.

Q: What about the TGI [25] of the same compound?
A: The TGI was > 100 µM.

Q: What about the GI50 [26] of the same compound?
A: The GI50 was > 100 µM.

Q: What about the TGI [26] of the same compound?
A: Its TGI is > 100 µM.

Q: And the GI50 [27]?
A: Its GI50 is 31.7 nM.

Q: And the GI50 [28]?
A: Its GI50 is > 100 µM.

Q: And the TGI [28]?
A: The TGI was > 100 µM.

Q: And the TGI [29]?
A: The TGI was > 100 µM.

Q: What about the GI50 [30] of the same compound?
A: Its GI50 is > 44.7 µM.

Q: What about the TGI [30] of the same compound?
A: The TGI was > 100 µM.

Q: And the GI50 [31]?
A: The GI50 was 1960 nM.

Q: What about the TGI [31] of the same compound?
A: The TGI was > 57.7 µM.

Q: And the GI50 [32]?
A: Its GI50 is > 100 µM.

Q: And the TGI [32]?
A: The TGI was > 100 µM.

Q: What about the GI50 [33] of the same compound?
A: The GI50 was > 67.4 µM.

Q: And the TGI [33]?
A: Its TGI is > 100 µM.

Q: What about the GI50 [34] of the same compound?
A: Its GI50 is > 100 µM.

Q: What about the TGI [34] of the same compound?
A: The TGI was > 100 µM.

Q: And the GI50 [35]?
A: The GI50 was > 100 µM.

Q: And the TGI [35]?
A: The TGI was > 100 µM.

Q: What about the GI50 [36] of the same compound?
A: Its GI50 is > 100 µM.

Q: What about the TGI [36] of the same compound?
A: Its TGI is > 100 µM.

Q: What about the GI50 [37] of the same compound?
A: Its GI50 is < 14.9 nM.

Q: And the TGI [37]?
A: Its TGI is 322 nM.

Q: And the GI50 [38]?
A: The GI50 was 31.8 µM.

Q: What about the TGI [38] of the same compound?
A: The TGI was > 100 µM.

Q: And the GI50 [39]?
A: Its GI50 is > 56 µM.

Q: What about the TGI [39] of the same compound?
A: The TGI was > 100 µM.

Q: What about the GI50 [40] of the same compound?
A: The GI50 was 21.9 µM.

Q: And the TGI [40]?
A: Its TGI is > 90.9 µM.

Q: What about the GI50 [41] of the same compound?
A: The GI50 was 15.7 µM.

Q: And the TGI [41]?
A: Its TGI is > 100 µM.

Q: What about the GI50 [42] of the same compound?
A: The GI50 was > 100 µM.

Q: And the TGI [42]?
A: Its TGI is > 100 µM.

Q: And the GI50 [43]?
A: The GI50 was 29.4 µM.

Q: And the TGI [43]?
A: Its TGI is > 100 µM.

Q: What about the GI50 [44] of the same compound?
A: The GI50 was > 100 µM.

Q: What about the TGI [44] of the same compound?
A: The TGI was > 100 µM.

Q: And the GI50 [45]?
A: The GI50 was > 45.4 µM.

Q: And the TGI [45]?
A: Its TGI is > 100 µM.

Q: And the GI50 [46]?
A: The GI50 was 1550 nM.

Q: And the TGI [46]?
A: The TGI was > 100 µM.

Q: And the GI50 [47]?
A: Its GI50 is > 100 µM.

Q: And the TGI [47]?
A: The TGI was > 100 µM.

Q: What about the GI50 [48] of the same compound?
A: The GI50 was < 10 nM.

Q: And the TGI [48]?
A: The TGI was 733 nM.

Q: And the GI50 [49]?
A: The GI50 was 498 nM.

Q: What about the TGI [49] of the same compound?
A: Its TGI is 15.2 µM.

Q: And the GI50 [50]?
A: The GI50 was > 100 µM.

Q: What about the TGI [50] of the same compound?
A: Its TGI is > 100 µM.

Q: And the GI50 [51]?
A: Its GI50 is 16.9 µM.

Q: What about the TGI [51] of the same compound?
A: Its TGI is > 100 µM.

Q: What about the GI50 [52] of the same compound?
A: Its GI50 is 405 nM.

Q: What about the TGI [52] of the same compound?
A: The TGI was > 31.9 µM.

Q: What about the GI50 [53] of the same compound?
A: Its GI50 is 21.1 nM.

Q: And the TGI [53]?
A: The TGI was > 100 µM.

Q: And the GI50 [54]?
A: The GI50 was 553 nM.

Q: And the TGI [54]?
A: The TGI was > 100 µM.

Q: And the GI50 [55]?
A: The GI50 was 4.96 µM.

Q: And the TGI [55]?
A: Its TGI is > 45.9 µM.

Q: What about the GI50 [56] of the same compound?
A: Its GI50 is 922 nM.

Q: And the TGI [56]?
A: Its TGI is > 100 µM.

Q: And the GI50 [57]?
A: Its GI50 is 52.4 nM.

Q: And the TGI [57]?
A: Its TGI is > 100 µM.

Q: And the TGI [58]?
A: Its TGI is > 75.8 µM.
